Measurements taken from patent US8450318B2 (priority 2007, dated 2013).
In brackets after ≈: the same amount, converted by molar mass. Like-named read-outs stand apart in the source and are kept apart here.

Columns and labels:
Sindbis virus = test: Antiviral activity, Sindbis virus; assay type: cell-based; conditions: Table 3, reference compounds
Coxsackie virus B4 = test: microbe, parasite or virus in culture; assay type: cell-based; conditions: Table 3, reference compounds
Punta Toro virus = test: Antiviral activity, Punta Toro virus; assay type: cell-based; conditions: Table 3, reference compounds
Influenza A H1N1 subtype = test: Anti-influenza activity in MDCK cells, Influenza A H1N1; assay type: cell-based; conditions: for EC50 Influenza A H1N1 subtype MTS: cell viability, formazan-based MTS assay; for EC50 Influenza A H1N1 subtype visual CPE score: visual scoring of the CPE; for EC50: reference compounds
Text: (§1) MDCK cells (Madin Darby canine kidney cells) have been used for the experiments shown in table 5 using standard procedures known in the art.

Influenza A H3N2 subtype = test: Anti-influenza activity in MDCK cells, Influenza A H3N2; assay type: cell-based; conditions: for EC50 Influenza A H3N2 subtype MTS: cell viability, formazan-based MTS assay; for EC50 Influenza A H3N2 subtype visual CPE score: visual scoring of the CPE; for EC50: reference compounds
Text: as §1

Influenza B = test: Anti-influenza activity in MDCK cells, Influenza B; assay type: cell-based; conditions: for EC50 Influenza B MTS: cell viability, formazan-based MTS assay; for EC50 Influenza B visual CPE score: visual scoring of the CPE; for EC50: reference compounds
HIV-1 [1] = conditions: Table 1a
HIV-2 = test: Antiretrovirus assay, HIV-2; conditions: for EC50 HIV-2: Table 1a
Feline Corona virus = test: Activity on feline corona virus in CRFK cells; assay type: cell-based
CRFK cells [2] = conditions: cytotoxicity, feline corona virus test
[3] = tested on: Herpes simplex virus-1 (KOS); test: Antiviral activity, Herpes simplex virus-1 (KOS); assay type: cell-based; conditions: Human alphaherpesvirus 1; Table 4, reference compounds
[4] = tested on: Herpes simples virus-2 (G); test: Antiviral activity, Herpes simplex virus-2 (G); assay type: cell-based; conditions: Human alphaherpesvirus 2; Table 4, reference compounds
Vaccinia virus = test: microbe, parasite or virus in culture; assay type: cell-based; conditions: Orthopoxvirus vaccinia, read-out: EC50 Vaccinia virus
[5] = tested on: Vesicular stomatitis virus; test: microbe, parasite or virus in culture; assay type: cell-based; conditions: read-out: EC50 Vesicular stomatitis virus
[6] = tested on: Herpes simplex virus-1 TK KOS-ACV^r; test: Antiviral activity, Herpes simplex virus-1 TK KOS-ACVr; assay type: cell-based; conditions: Human alphaherpesvirus 1, read-out: EC50 Herpes simplex virus-1 TK KOS-ACV^r
[7] = tested on: human corona (SARS) virus; test: microbe, parasite or virus in culture; assay type: cell-based
CRFK cells [8] = conditions: cytotoxicity, human corona virus test
in vitro = conditions: human, CEM cells
HIV-1 [9] = test: microbe, parasite or virus in culture; conditions: Human immunodeficiency virus 1, CCRF-CEM, read-out: EC50 HIV-1

Nc1ncnc2c1ncn2C[C@H](O)CO [(S)-DHPA]
EC50 (Sindbis virus): > 250 µM
EC50 (Coxsackie virus B4): > 250 µM
EC50 (Punta Toro virus): > 250 µM

CCc1c(CNc2cccc(C(C)=NO)c2)c(CC)c(CNc2cc(C)cc(C)n2)c(CC)c1CNc1cc(C)cc(C)n1 [ABT5]
EC50 Influenza A H1N1 subtype MTS (Influenza A H1N1 subtype): >4 µg/mL
EC50 Influenza A H1N1 subtype visual CPE score (Influenza A H1N1 subtype): >4 µg/mL
EC50 Influenza A H3N2 subtype MTS (Influenza A H3N2 subtype): >4 µg/mL
EC50 Influenza A H3N2 subtype visual CPE score (Influenza A H3N2 subtype): >4 µg/mL
EC50 Influenza B MTS (Influenza B): >4 µg/mL
EC50 Influenza B visual CPE score (Influenza B): >4 µg/mL

CCc1c(CNc2cccc(CO)c2)c(CC)c(CNc2cc(C)cc(C)n2)c(CC)c1CNc1cc(C)cc(C)n1 [ABT6]
EC50 HIV-1 (HIV-1 [1]): >2 µg/mL
EC50 HIV-2 (HIV-2): >2 µg/mL

CCOC(=O)CNc1cccc(NCc2c(CC)c(CNc3cccc(C)n3)c(CC)c(CNc3cccc(C)n3)c2CC)n1 [AH29]
Feline Corona virus EC50 (Feline Corona virus): >4 µg/mL
Feline Corona virus CC50 (CRFK cells [2]): 13.3 µg/mL

CCc1c(CNc2cccc(C)n2)c(CC)c(CNc2cccc(NC(=O)Cc3ccccc3)n2)c(CC)c1CNc1cccc(C)n1 [AH30]
EC50 Influenza A H1N1 subtype MTS (Influenza A H1N1 subtype): >4 µg/mL
EC50 Influenza A H1N1 subtype visual CPE score (Influenza A H1N1 subtype): >4 µg/mL
EC50 Influenza A H3N2 subtype MTS (Influenza A H3N2 subtype): >4 µg/mL
EC50 Influenza A H3N2 subtype visual CPE score (Influenza A H3N2 subtype): >4 µg/mL
EC50 Influenza B MTS (Influenza B): >4 µg/mL
EC50 Influenza B visual CPE score (Influenza B): >4 µg/mL

Nc1nc2c(ncn2COCCO)c(=O)[nH]1 [Acyclovir]
EC50 [3]: 0.4 µM
EC50 [4]: 0.08 µM
EC50 (Vaccinia virus): > 250 µM
EC50 [5]: > 250 µM
EC50 [6]: 150 µM

NC12CC3CC(CC(C3)C1)C2 [Amantadin, reference compound]
EC50 (Influenza A H1N1 subtype; MTS, read-out: EC50 Influenza A H1N1 subtype MTS): 59.3 µM
EC50 (Influenza A H1N1 subtype; visual CPE, read-out: EC50 Influenza A H1N1 subtype visual CPE score): 58.5 µM
EC50 (Influenza A H3N2 subtype; MTS, read-out: EC50 Influenza A H3N2 subtype MTS): 1.6 µM
EC50 (Influenza A H3N2 subtype; visual CPE, read-out: EC50 Influenza A H3N2 subtype visual CPE score): 4 µM
EC50 (Influenza B; MTS, read-out: EC50 Influenza B MTS): > 100 µM
EC50 (Influenza B; visual CPE, read-out: EC50 Influenza B visual CPE score): > 100 µM

CCc1c(CNCC2COCCOCCOCCOCCO2)c(CC)c(CNc2cc(C)cc(C)n2)c(CC)c1CNc1cc(C)cc(C)n1 (centres unmarked) [Co12]
Feline Corona virus EC50 (Feline Corona virus): 1.4 ± 0.2 µg/mL
Human Corona virus EC50 ([7]; human corona (SARS) virus): 1.9 ± 0.6 µg/mL
EC50 HIV-1 (HIV-1 [1]): 1.35 ± 0.29 µg/mL (≈ 1.95 µM)
Feline Corona virus CC50 (CRFK cells [2]): 11 ± 0 µg/mL
Human Corona virus CC50 (CRFK cells [8]): 13 ± 1.2 µg/mL
EC50 HIV-2 (HIV-2): >4 µg/mL

CCc1c(CC#N)c(CC)c(CNc2cc(C)cc(C)n2)c(CC)c1CNc1cc(C)cc(C)n1 [Co19]
Feline Corona virus EC50 (Feline Corona virus): >4 µg/mL
EC50 HIV-1 (HIV-1 [1]): >2 µg/mL
Feline Corona virus CC50 (CRFK cells [2]): 10.8 µg/mL
EC50 HIV-2 (HIV-2): >2 µg/mL

CCc1c(CN)c(CC)c(CNc2cc(C)cc(C)n2)c(CC)c1CNc1cc(C)cc(C)n1.Cl [Co28]
EC50 Influenza A H1N1 subtype MTS (Influenza A H1N1 subtype): >0.8 µg/mL
EC50 Influenza A H1N1 subtype visual CPE score (Influenza A H1N1 subtype): >0.8 µg/mL
EC50 Influenza A H3N2 subtype MTS (Influenza A H3N2 subtype): >0.8 µg/mL
EC50 Influenza A H3N2 subtype visual CPE score (Influenza A H3N2 subtype): >0.8 µg/mL
EC50 Influenza B MTS (Influenza B): >0.8 µg/mL
EC50 Influenza B visual CPE score (Influenza B): >0.8 µg/mL

CCc1c(CNc2cc(C)cc(C)n2)c(CC)c(CNc2ccc3ccc(C)nc3n2)c(CC)c1CNc1cc(C)cc(C)n1 [Co50]
EC50 HIV-1 (HIV-1 [1]): >2 µg/mL
EC50 HIV-2 (HIV-2): >2 µg/mL

CCc1c(CNc2cc(C)cc(C)n2)c(CC)c(CNc2ccc3ccc(C)nc3n2)c(CC)c1CNc1ccc2ccc(C)nc2n1 [Co54]
EC50 HIV-1 (HIV-1 [1]): >2 µg/mL
EC50 HIV-2 (HIV-2): >2 µg/mL

Cc1cc(C)nc(NCc2c(C)c(CNc3cc(C)cc(C)n3)c(C)c(CNc3cc(C)cc(C)n3)c2C)c1 [Compound 3a, 1,3,5-Tris[(4,6-dimethyl-pyridin-2-yl)aminomethyl]-2,4,6-trimethyl-benzene]
EC50 (Feline Corona virus): 0.8 ± 0.6 µg/mL (≈ 1.53 µM)
EC50 ([7]; Severe acute respiratory syndrome coronavirus, read-out: Human Corona virus EC50): 1.3 ± 0.2 µg/mL (≈ 2.49 µM)
melting point: 193 to 195 °C
CC50 (in vitro): 2.63 ± 0.08 µg/mL (≈ 5.03 µM)
EC50 (HIV-2; Human immunodeficiency virus 2, read-out: EC50 HIV-2): > 0.8 µg/mL
EC50 (HIV-1 [9]): > 0.8 µg/mL
